For 25 compounds, Kb and melting point results are on record in patent US10577332B2, “Tetrazole derivatives” (Hoffmann-La Roche Inc., priority 2015, dated 2020).

The target in one data set is T1, human EAAT3 (Homo sapiens, UniProt P43005).
T1 construct: expressed in transfected cells
T1 sequence (P43005 1-524): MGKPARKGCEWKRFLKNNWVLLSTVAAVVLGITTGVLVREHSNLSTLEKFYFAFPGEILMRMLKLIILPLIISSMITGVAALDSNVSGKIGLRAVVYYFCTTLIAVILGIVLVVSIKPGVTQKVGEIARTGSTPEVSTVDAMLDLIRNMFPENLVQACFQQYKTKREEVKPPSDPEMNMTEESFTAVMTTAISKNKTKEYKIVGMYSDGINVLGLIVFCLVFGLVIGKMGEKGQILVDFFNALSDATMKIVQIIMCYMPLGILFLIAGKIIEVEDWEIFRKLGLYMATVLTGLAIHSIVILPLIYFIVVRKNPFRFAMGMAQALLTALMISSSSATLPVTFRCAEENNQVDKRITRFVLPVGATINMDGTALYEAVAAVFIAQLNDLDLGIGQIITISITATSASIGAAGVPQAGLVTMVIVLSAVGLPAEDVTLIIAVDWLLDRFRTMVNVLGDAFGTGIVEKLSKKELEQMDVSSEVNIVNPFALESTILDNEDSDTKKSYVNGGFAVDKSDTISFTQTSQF
As to the kind of experiment: FLIPR Membrane Potential (FMP) assay. Particulars: HEK-293 cells stably expressing human EAAT3; antagonist applied 15 min before L-glutamate at EC80; Kb by Cheng-Prusoff from IC50. It counts as cell-based. On the procedure:
The FLIPR Membrane Potential (FMP) Assay
HEK-293 cells stably expressing human EAAT3 were seeded at 55 000 cells/well in growth medium (DMEM glutamate free (Invitrogen 11960-044), 1% Pen Strep (10 ml/l GIBCO BRL No 15140-023), 10% FCS non dialysed heat inactivated, 5 mg/l puromycin) in poly-D-lysine treated 96-well black microtiter plates with clear-bottom. After 24 h, the growth medium was removed and 100 μl/well of Krebs buffer (140 mM NaCl, 4.7 mM KCl, 2.5 mM CaCl2, 1.2 mM MgCl2, 11 mM HEPES, 10 mM D-glucose, pH=7.4) added. The cells were then loaded by adding 100 μl/well FMP assay dye (FLIPR Membrane Potential assay reagent, Molecular Devices). The 96-well plates were then incubated at 37° C. for 1 h. The depolarization of the cells will cause more dye to enter in the cells, where it will bind to intracellular proteins and lipids and cause an increase in the fluorescence signal. Antagonist potency at human EAAT3 was determined by using L-glutamate as agonist at a concentration which gives 80% of the maximum response. The antagonists were applied 15 min before the application of the agonist L-glutamate. The assays were performed at room temperature and measurements done by using a Fluorometric Imaging Plate Reader (FLIPR, Molecular Devices) and filter #2. Responses were measured as peak increase in fluorescence minus basal (i.e. fluorescence without addition of L-glutamate). Kb was determined using the Cheng-Prusoff equation Kb=IC50/[1+(A/EC50)], where IC50 is the concentration of the antagonist producing 50% inhibition, A is the concentration of the agonist against which the IC50 is being determined (at EC80) and EC50 is the concentration of the agonist producing 50% […].

The Kb is the equilibrium dissociation constant of an antagonist, usually derived from a functional assay. A lower Kb goes with a more potent antagonist. The melting point is the temperature of the solid-liquid transition. Consider `Cc1nnnn1-c1cc(C(=O)NC(C)(C)C(F)(F)F)cc(-c2ccc(Cl)cc2)c1` [Example 70, 3-(4-Chlorophenyl)-5-(5-methyltetrazol-1-yl)-N-(1,1,1-trifluoro-2-methylpropan-2-yl)-benzamide], for which the melting point turned out to be 96 °C. For the same compound, the antagonist dissociation constant (Kb) at human EAAT3 worked out at 230 nM.

For `CC(C)c1nnnn1-c1cc(C(=O)NC(C)(C)C#N)cc(-c2ccc(Cl)cc2)c1` [Example 101, 3-(4-Chlorophenyl)-N-(2-cyanopropan-2-yl)-5-(5-propan-2-yltetrazol-1-yl)-benzamide], the melting point amounted to 107 °C. Also, the antagonist dissociation constant (Kb) on human EAAT3 turned out to be 205 nM.

In turn, `CC(C)(C)NC(=O)c1cc(-c2ccc(C(F)(F)F)cc2)cc(-n2nnnc2C(C)(C)C)c1` [Example 104, N-tert-Butyl-3-(5-tert-butyltetrazol-1-yl)-5-[4-(trifluoromethyl)-phenyl]-benzamide] yielded a melting point of 241 °C. Further, on human EAAT3, the Kb was 190 nM.

For `CC1(NC(=O)c2cc(-c3ccc(Cl)cc3)cc(-n3nnnc3C(C)(C)C)c2)CCS(=O)(=O)C1` (racemic) [Example 89, (RS)-3-(5-tert-Butyltetrazol-1-yl)-5-(4-chlorophenyl)-N-(3-methyl-, 1-dioxothiolan-3-yl)benzamide], the melting point came to 187 °C. On human EAAT3, this compound gave an antagonist dissociation constant (Kb) of 250 nM.

`CC(C)(C#N)NC(=O)c1cc(-c2ccc(F)c(F)c2)cc(-n2nnnc2C(C)(C)C)c1` [Example 123, 3-(5-tert-Butyltetrazol-1-yl)-N-(2-cyanopropan-2-yl)-5-(3,4-difluorophenyl)-benzamide]: the melting point is 263.5 °C. The compound further displayed an antagonist dissociation constant (Kb) on human EAAT3 of 220 nM.

In the case of `CCC(C)(C)NC(=O)c1cc(-c2ccc(Cl)cc2)cc(-n2nnnc2C2CC2)c1` [Example 55, 3-(4-Chlorophenyl)-5-(5-cyclopropyltetrazol-1-yl)-N-(2-methylbutan-2-yl)-benzamide], the melting point came out at 78 °C. The compound further came in with a Kb on human EAAT3 of 480 nM.

In the case of `Cc1ccc(-c2cc(C(=O)NC3(C)CCS(=O)(=O)C3)cc(-n3nnnc3C3CC3)c2)cc1` (racemic) [Example 33, (RS)-3-(5-Cyclopropyltetrazol-1-yl)-N-(3-methyl-1,1-dioxothiolan-3-yl)-5-(4-methylphenyl)-benzamide], the melting point was 130.5 °C. This compound came in with a Kb on human EAAT3 of 300 nM.

Consider `CC(C)c1nnnn1-c1cc(C(=O)NC(C)(C)C)cc(-c2ccc(Cl)cc2)c1` [Example 43, N-tert-Butyl-3-(4-chlorophenyl)-5-(5-propan-2-yltetrazol-1-yl)-benzamide], for which the melting point came to 90 °C. Also, the antagonist equilibrium constant (Kb) at human EAAT3 came to 89 nM.

Compound `CC(C)(C)c1nnnn1-c1cc(C(=O)NC(C)(C)C2CC2)cc(-c2ccc(F)cc2)c1` [Example 99, 3-(5-tert-Butyltetrazol-1-yl)-N-(2-cyclopropylpropan-2-yl)-5-(4-fluorophenyl)-benzamide] gave a melting point of 201 °C. Also, the Kb at human EAAT3 stood at 200 nM.

The compound `Cc1cc(-c2cc(C(=O)NC(C)(C)C)cc(-n3nnnc3C(C)(C)C)c2)ccc1F` [Example 103, N-tert-Butyl-3-(5-tert-butyltetrazol-1-yl)-5-(4-fluoro-3-methylphenyl)-benzamide] showed a melting point of 190.5 °C. Also, on human EAAT3, the Kb stood at 260 nM.

For `Cc1ccc(-c2cc(C(=O)NC(C)(C)C)cc(-n3nnnc3C)c2)cc1` [Example 23, N-tert-Butyl-3-(4-methylphenyl)-5-(5-methyltetrazol-1-yl)-benzamide], the melting point amounted to 85 °C. The compound further showed an antagonist dissociation constant (Kb) on human EAAT3 of 290 nM.

On to `CC(C)(NC(=O)c1cc(-c2ccc(Cl)cc2)cc(-n2nnnc2C(F)(F)F)c1)C(F)(F)F` [Example 79, 3-(4-Chlorophenyl)-N-(1,1,1-trifluoro-2-methylpropan-2-yl)-5-[5-(trifluoromethyl)tetrazol-1-yl]-benzamide], for which the melting point came out at 166.5 °C. For the same compound, on human EAAT3, the Kb was determined as 200 nM.

`CC(C)(NC(=O)c1cc(-c2ccc(Cl)cc2)cc(-n2cnnn2)c1)C1CC1` [Example 31, 3-(4-Chlorophenyl)-N-(2-cyclopropylpropan-2-yl)-5-(tetrazol-1-yl)-benzamide] had a melting point of 191 °C. Further, the antagonist dissociation constant (Kb) at human EAAT3 was found to be 210 nM.

As to `CC(C)(C)c1nnnn1-c1cc(C(=O)NC(C)(C)C(F)(F)F)cc(-c2ccc(C(F)(F)F)cc2)c1` [Example 116, 3-(5-tert-Butyltetrazol-1-yl)-5-[4-(trifluoromethyl)-phenyl]-N-(1,1,1-trifluoro-2-methylpropan-2-yl)-benzamide], the melting point stood at 108 °C. For the same compound, the Kb at human EAAT3 stood at 550 nM.

With `CCC(C)(C)NC(=O)c1cc(-c2ccc(C)cc2)cc(-n2nnnc2C2CC2)c1` [Example 27, 3-(5-Cyclopropyltetrazol-1-yl)-N-(2-methylbutan-2-yl)-5-(4-methylphenyl)-benzamide], the melting point came out at 75 °C. On human EAAT3, this compound registered a Kb of 200 nM.

`Cc1ccc(-c2cc(C(=O)NC(C)(C)C(F)(F)F)cc(-n3nnnc3C(C)(C)C)c2)cc1` [Example 117, 3-(5-tert-Butyltetrazol-1-yl)-5-(4-methylphenyl)-N-(1,1,1-trifluoro-2-methylpropan-2-yl)-benzamide] showed a melting point of 223.5 °C. The Kb on human EAAT3 was found to be 280 nM.

`CC(C)c1nnnn1-c1cc(C(=O)NC(C)(C)C(F)(F)F)cc(-c2ccc(F)cc2)c1` [Example 59, 3-(4-Fluorophenyl)-5-(5-propan-2-yltetrazol-1-yl)-N-(1,1,1-trifluoro-2-methylpropan-2-yl)-benzamide] yielded a melting point of 80 °C. For the same compound, the Kb on human EAAT3 worked out at 310 nM.

`CCC(C)(C)NC(=O)c1cc(-c2ccc(Cl)cc2)cc(-n2cnnn2)c1` [Example 11, 3-(4-Chlorophenyl)-N-(2-methylbutan-2-yl)-5-(tetrazol-1-yl)-benzamide] came in with a melting point of 206 °C. Moreover, the Kb on human EAAT3 is 76 nM.

Compound `CCc1nnnn1-c1cc(C(=O)NC(C)(C)CC)cc(-c2ccc(C)cc2)c1` [Example 28, 3-(5-Ethyltetrazol-1-yl)-N-(2-methylbutan-2-yl)-5-(4-methylphenyl)-benzamide] yielded a melting point of 71.5 °C. The antagonist dissociation constant (Kb) on human EAAT3 is 140 nM.

The compound `CC1(NC(=O)c2cc(-c3ccc(F)cc3)cc(-n3nnnc3C(C)(C)C)c2)CCS(=O)(=O)C1` (racemic) [Example 95, (RS)-3-(5-tert-Butyltetrazol-1-yl)-5-(4-fluorophenyl)-N-(3-methyl-, 1-dioxothiolan-3-yl)-benzamide] displayed a melting point of 258.5 °C. Further, the antagonist equilibrium constant (Kb) on human EAAT3 is 350 nM.

In turn, `CCC(C)(C)NC(=O)c1cc(-c2ccc(Cl)c(Cl)c2)cc(-n2cnnn2)c1` [Example 38, 3-(3,4-Dichlorophenyl)-N-(2-methylbutan-2-yl)-5-(tetrazol-1-yl)-benzamide] registered a melting point of 206 °C. For the same compound, the antagonist dissociation constant (Kb) at human EAAT3 worked out at 700 nM.

As for `CCC(C)(C)NC(=O)c1cc(-c2ccc(Cl)cc2)cc(-n2nnnc2C(F)(F)F)c1` [Example 74, 3-(4-Chlorophenyl)-N-(2-methylbutan-2-yl)-5-[5-(trifluoromethyl)-tetrazol-1-yl]-benzamide], the melting point was determined as 185 °C. Further, the Kb on human EAAT3 stood at 180 nM.

`Cc1nnnn1-c1cc(C(=O)NC2(C)CCS(=O)(=O)C2)cc(-c2ccc(F)cc2)c1` (racemic) [Example 87, (RS)-3-(4-Fluorophenyl)-N-(3-methyl-1,1-dioxothiolan-3-yl)-5-(5-methyltetrazol-1-yl)-benzamide] yielded a melting point of 117 °C. At human EAAT3, this compound came in with an antagonist equilibrium constant (Kb) of 290 nM.

Compound `CC(C)(C#N)NC(=O)c1cc(-c2ccc(F)cc2)cc(-n2nnnc2C(C)(C)C)c1` [Example 100, 3-(5-tert-Butyltetrazol-1-yl)-N-(2-cyanopropan-2-yl)-5-(4-fluorophenyl)-benzamide] gave a melting point of 115 °C. The same compound yielded a Kb at human EAAT3 of 230 nM.

Turning to `CC(C)(C)NC(=O)c1cc(-c2ccc(Cl)cc2)cc(-n2cnnn2)c1` [Example 12, N-tert-Butyl-3-(4-chlorophenyl)-5-(tetrazol-1-yl)-benzamide], the melting point was determined as 199 °C. Moreover, the antagonist dissociation constant (Kb) on human EAAT3 amounted to 350 nM.
